Data reported in ChEMBL document CHEMBL4616632, “Discovery of Cyclic Boronic Acid QPX7728, an Ultrabroad-Spectrum Inhibitor of Serine and Metallo-β-lactamases” (J Med Chem, 2020).

Tests used:
[1] = test system: Pseudomonas aeruginosa; assay: Potentiation of meropenem-induced antibacterial activity against Pseudomonas aeruginosa assessed as meropenem MIC90 at 8 ug/ml by broth microdilution method (reference value: 16 ug/ml); type: functional
[2] = Cmax in rat at 100 mg/kg, po administered via gavage by HPLC/MS analysis; type: ADME, organism-based; set-up: dose 100 mg/kg, route oral; conditions: in vivo
[3] = Inhibition of […] OXA-48 using nitrocefin as substrate preincubated for 10 mins followed by substrate addition measured every 10 secs for 10 mins by spectrophotometrically analysis
[4] = Inhibition of recombinant Escherichia coli CTX-M-14 using nitrocefin as substrate preincubated for 10 mins followed by substrate addition measured every 10 secs for 10 mins by spectrophotometrically analysis
[5] = test system: Klebsiella pneumoniae; assay: Inhibition of Klebsiella pneumoniae KP1054 VIM-1 assessed as minimum concentration of compound required to reduce the MIC of biapenem to 1 ug/ml
[6] = test system: Enterobacteriaceae; assay: Potentiation of ceftolozane-induced antibacterial activity against carbapenem-resistant Enterobacteriaceae assessed as ceftolozane MIC50 at 8 ug/ml by broth microdilution method (Rvb > 32 ug/ml); type: functional
[7] = Clearance in rat at 30 mg/kg, po administered via gavage by HPLC/MS analysis; type: ADME, organism-based; conditions: in vivo
[8] = test system: Enterobacteriaceae; assay: Potentiation of cefepime-induced antibacterial activity against carbapenem-resistant Enterobacteriaceae assessed as cefepime MIC50 at 8 ug/ml by broth microdilution method (Rvb > 32 ug/ml); type: functional
[9] = Cmax in rat at 1000 mg/kg, po administered via gavage by HPLC/MS analysis; type: ADME, organism-based; set-up: dose 1000 mg/kg, route oral; conditions: in vivo
[10] = molecular target: Chymase (Homo sapiens, UniProt P23946); assay: Inhibition of mammalian chymase (unknown origin) using Suc-AAPF-AMC as substrate preincubated for 10 mins followed by substrate addition measured after 30 mins
Chymase, sequence (P23946 whole entry): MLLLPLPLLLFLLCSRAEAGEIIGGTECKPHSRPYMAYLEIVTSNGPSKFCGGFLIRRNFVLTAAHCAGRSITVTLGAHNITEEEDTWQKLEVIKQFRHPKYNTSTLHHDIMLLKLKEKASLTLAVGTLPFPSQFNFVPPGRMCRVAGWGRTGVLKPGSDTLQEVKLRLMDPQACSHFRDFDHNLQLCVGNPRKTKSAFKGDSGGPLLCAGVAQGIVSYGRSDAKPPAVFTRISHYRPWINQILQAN

[11] = Inhibition of recombinant Escherichia coli IMP-1 using imipenem as substrate preincubated for 10 mins followed by substrate addition measured every 30 secs for 30 mins by spectrophotometrically analysis
[12] = Oral bioavailability in rat at 30 mg/kg administered via gavage by HPLC/MS analysis; type: ADME, organism-based; conditions: in vivo
[13] = Half life in rat at 300 mg/kg, po administered via gavage by HPLC/MS analysis; type: ADME, organism-based; conditions: in vivo
[14] = molecular target: Dipeptidyl peptidase 8 (Homo sapiens, UniProt Q6V1X1); assay: Inhibition of mammalian DPP8 (unknown origin) using Lys-Pro-AMC as substrate preincubated for 10 mins followed by substrate addition measured after 30 mins
Dipeptidyl peptidase 8, sequence (Q6V1X1 whole entry): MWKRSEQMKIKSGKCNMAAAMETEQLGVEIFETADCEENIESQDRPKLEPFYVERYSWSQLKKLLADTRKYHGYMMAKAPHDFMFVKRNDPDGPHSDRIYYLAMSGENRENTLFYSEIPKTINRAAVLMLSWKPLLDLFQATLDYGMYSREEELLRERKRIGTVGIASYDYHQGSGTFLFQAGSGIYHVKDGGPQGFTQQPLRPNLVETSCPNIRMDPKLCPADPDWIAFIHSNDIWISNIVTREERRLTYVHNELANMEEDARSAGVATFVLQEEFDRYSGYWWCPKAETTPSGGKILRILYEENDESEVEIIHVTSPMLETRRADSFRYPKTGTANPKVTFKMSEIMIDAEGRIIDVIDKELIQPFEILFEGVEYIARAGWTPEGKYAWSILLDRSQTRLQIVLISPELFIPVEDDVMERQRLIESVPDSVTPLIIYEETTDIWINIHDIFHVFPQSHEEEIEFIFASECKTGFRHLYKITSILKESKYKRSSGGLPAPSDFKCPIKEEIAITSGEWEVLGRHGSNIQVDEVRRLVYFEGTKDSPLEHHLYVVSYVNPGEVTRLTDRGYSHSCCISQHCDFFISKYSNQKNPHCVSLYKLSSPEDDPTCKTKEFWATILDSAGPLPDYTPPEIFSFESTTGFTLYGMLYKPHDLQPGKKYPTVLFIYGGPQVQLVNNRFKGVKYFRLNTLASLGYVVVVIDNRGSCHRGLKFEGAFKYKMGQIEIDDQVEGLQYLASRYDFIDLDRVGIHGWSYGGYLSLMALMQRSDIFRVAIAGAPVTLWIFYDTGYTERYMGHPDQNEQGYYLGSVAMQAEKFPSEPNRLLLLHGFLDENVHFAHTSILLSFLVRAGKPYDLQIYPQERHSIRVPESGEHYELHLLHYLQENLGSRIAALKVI

[15] = test system: Enterobacteriaceae; assay: Potentiation of meropenem-induced antibacterial activity against carbapenem-resistant Enterobacteriaceae assessed as meropenem MIC50 at 8 ug/ml by broth microdilution method (reference value: 8 ug/ml); type: functional
[16] = molecular target: Prothrombin (Homo sapiens, UniProt P00734); assay: Inhibition of mammalian thrombin (unknown origin) using Benz-FVR-AMC as substrate preincubated for 10 mins followed by substrate addition measured after 30 mins
[17] = AUC in rat at 10 mg/kg, iv administered as infusion for 0.5 hrs by HPLC/MS analysis; type: ADME, organism-based; conditions: in vivo
[18] = AUC in rat at 30 mg/kg, po administered via gavage by HPLC/MS analysis; type: ADME, organism-based; conditions: in vivo
[19] = molecular target: Interstitial collagenase (Homo sapiens, UniProt P03956); assay: Inhibition of mammalian MMP-1 (unknown origin) using McaPLGLDpaAR-NH2 as substrate preincubated for 10 mins followed by substrate addition measured after 30 mins
Interstitial collagenase, sequence (P03956 whole entry): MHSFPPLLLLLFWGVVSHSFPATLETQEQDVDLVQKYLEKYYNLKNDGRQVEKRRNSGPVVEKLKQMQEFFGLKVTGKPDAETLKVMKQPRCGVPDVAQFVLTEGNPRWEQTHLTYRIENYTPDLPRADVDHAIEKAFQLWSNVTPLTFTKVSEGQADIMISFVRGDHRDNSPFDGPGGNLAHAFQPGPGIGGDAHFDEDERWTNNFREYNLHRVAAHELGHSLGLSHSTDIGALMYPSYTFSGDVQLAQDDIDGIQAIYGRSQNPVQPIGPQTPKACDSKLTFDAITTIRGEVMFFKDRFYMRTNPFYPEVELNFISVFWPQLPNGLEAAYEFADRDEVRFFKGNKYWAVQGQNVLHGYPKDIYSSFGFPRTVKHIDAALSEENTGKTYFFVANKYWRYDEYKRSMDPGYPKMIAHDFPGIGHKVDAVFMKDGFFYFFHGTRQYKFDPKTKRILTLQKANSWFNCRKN

[20] = test system: Enterobacteriaceae; assay: Inhibition of NDM/VIM in carbapenem-resistant Enterobacteriaceae assessed as potentiation of cefepime-induced antibacterial activity by measuring cefepime MIC90 at 8 ug/ml by broth microdilution method (Rvb > 32 ug/ml)
[21] = test system: Enterobacteriaceae; assay: Potentiation of meropenem-induced antibacterial activity against carbapenem-resistant Enterobacteriaceae assessed as meropenem MIC90 at 8 ug/ml by broth microdilution method (reference value: 16 ug/ml); type: functional
[22] = Oral bioavailability in rat at 30 mg/kg in fasted state by HPLC/MS analysis; type: ADME, organism-based; conditions: in vivo
[23] = Oral bioavailability in rat at 100 mg/kg administered via gavage by HPLC/MS analysis; type: ADME, organism-based; conditions: in vivo
[24] = test system: Klebsiella pneumoniae; assay: Potentiation of ceftolozane-induced antibacterial activity against carbapenem-resistant Klebsiella pneumoniae assessed as ceftolozane MIC90 at 8 ug/ml by broth microdilution method (Rvb > 32 ug/ml); type: functional
[25] = test system: Enterobacterales; assay: Potentiation of meropenem-induced antibacterial activity against Enterobacterales assessed as meropenem MIC90 at 8 ug/ml by broth microdilution method (Rvb > 32 ug/ml); type: functional
[26] = molecular target: Beta-lactamase OXA-23 (Acinetobacter baumannii) (UniProt Q9L4P2); assay: Inhibition of Acinetobacter baumannii AB1054 OXA-23 assessed as minimum concentration of compound needed to reduce the MIC of meropenem to 8 ug/ml
Beta-lactamase OXA-23 (Acinetobacter baumannii), sequence (Q9L4P2 whole entry): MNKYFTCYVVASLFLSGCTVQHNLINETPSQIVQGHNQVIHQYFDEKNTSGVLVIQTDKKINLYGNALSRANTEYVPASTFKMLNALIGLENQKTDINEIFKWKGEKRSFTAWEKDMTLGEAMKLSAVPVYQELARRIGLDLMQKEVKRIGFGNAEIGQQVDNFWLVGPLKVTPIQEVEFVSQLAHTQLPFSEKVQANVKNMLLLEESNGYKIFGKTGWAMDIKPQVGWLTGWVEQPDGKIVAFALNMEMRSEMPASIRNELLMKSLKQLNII

[27] = molecular target: Plasminogen (Homo sapiens, UniProt P00747); assay: Inhibition of mammalian plasmin (unknown origin) using H-D-VLK-pNA as substrate preincubated for 10 mins followed by substrate addition measured after 30 mins
Plasminogen, sequence (P00747 97-580 limits assumed): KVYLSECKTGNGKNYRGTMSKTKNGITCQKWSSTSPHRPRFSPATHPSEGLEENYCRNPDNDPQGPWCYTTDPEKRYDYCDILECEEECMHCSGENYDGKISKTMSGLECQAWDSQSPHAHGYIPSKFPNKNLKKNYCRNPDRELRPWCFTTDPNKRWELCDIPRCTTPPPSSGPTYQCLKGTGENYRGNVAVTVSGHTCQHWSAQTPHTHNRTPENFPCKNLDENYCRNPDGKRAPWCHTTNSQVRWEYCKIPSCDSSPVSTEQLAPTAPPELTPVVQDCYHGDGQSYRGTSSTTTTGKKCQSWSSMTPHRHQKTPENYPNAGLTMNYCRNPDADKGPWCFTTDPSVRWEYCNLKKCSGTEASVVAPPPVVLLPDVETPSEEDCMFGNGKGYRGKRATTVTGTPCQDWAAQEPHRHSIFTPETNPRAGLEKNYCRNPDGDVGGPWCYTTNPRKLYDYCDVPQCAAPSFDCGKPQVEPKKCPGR
Plasminogen, sequence (P00747 581-810 limits assumed): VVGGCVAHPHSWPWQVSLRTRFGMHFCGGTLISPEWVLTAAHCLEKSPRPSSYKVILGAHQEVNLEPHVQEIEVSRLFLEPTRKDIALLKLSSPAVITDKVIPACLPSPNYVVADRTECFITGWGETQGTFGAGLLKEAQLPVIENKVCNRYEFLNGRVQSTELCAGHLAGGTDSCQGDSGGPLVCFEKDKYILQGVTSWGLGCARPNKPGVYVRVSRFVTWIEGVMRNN

[28] = test system: Enterobacteriaceae; assay: Inhibition of OXA-48 in carbapenem-resistant Enterobacteriaceae assessed as potentiation of meropenem-induced antibacterial activity by measuring meropenem MIC50 at 8 ug/ml by broth microdilution method (reference value: 32 ug/ml)
[29] = test system: Acinetobacter baumannii; assay: Potentiation of cefepime-induced antibacterial activity against carbapenem-resistant Acinetobacter baumannii assessed as cefepime MIC50 at 8 ug/ml by broth microdilution method (Rvb > 32 ug/ml); type: functional
[30] = Cmax in rat at 10 mg/kg, iv administered as infusion for 0.5 hrs by HPLC/MS analysis; type: ADME, organism-based; set-up: dose 10 mg/kg, route intravenous; conditions: in vivo
[31] = Cmax in rat at 300 mg/kg, po administered via gavage by HPLC/MS analysis; type: ADME, organism-based; set-up: dose 300 mg/kg, route oral; conditions: in vivo
[32] = test system: Escherichia coli; assay: Inhibition of Escherichia coli ECM6625 SHV-5 assessed as minimum concentration of compound needed to reduce the MIC of aztreonam to 4 ug/ml
[33] = molecular target: Dipeptidyl peptidase 2 (Homo sapiens, UniProt Q9UHL4); assay: Inhibition of mammalian DPP7 (unknown origin) using H-Lys-Pro-AMC as substrate preincubated for 10 mins followed by substrate addition measured after 30 mins
[34] = Clearance in rat at 100 mg/kg, iv administered as infusion for 0.5 hrs by HPLC/MS analysis; type: ADME, organism-based; conditions: in vivo
[35] = test system: Enterobacteriaceae; assay: Potentiation of ceftolozane-induced antibacterial activity against carbapenem-resistant Enterobacteriaceae assessed as ceftolozane MIC90 at 8 ug/ml by broth microdilution method (Rvb > 32 ug/ml); type: functional
[36] = Clearance in rat at 300 mg/kg, iv administered as infusion for 0.5 hrs by HPLC/MS analysis; type: ADME, organism-based; conditions: in vivo
[37] = test system: Pseudomonas aeruginosa; assay: Potentiation of meropenem-induced antibacterial activity against Pseudomonas aeruginosa assessed as meropenem MIC50 at 8 ug/ml by broth microdilution method (reference value: 0.5 ug/ml); type: functional
[38] = molecular target: Class A carbapenemase KPC-2 (Escherichia coli, UniProt A8DS27); assay: Inhibition of recombinant Escherichia coli KPC-2 using nitrocefin as substrate preincubated for 10 mins followed by substrate addition and measured every 10 secs for 10 mins by spectrophotometric analysis
Class A carbapenemase KPC-2, sequence (A8DS27 whole entry): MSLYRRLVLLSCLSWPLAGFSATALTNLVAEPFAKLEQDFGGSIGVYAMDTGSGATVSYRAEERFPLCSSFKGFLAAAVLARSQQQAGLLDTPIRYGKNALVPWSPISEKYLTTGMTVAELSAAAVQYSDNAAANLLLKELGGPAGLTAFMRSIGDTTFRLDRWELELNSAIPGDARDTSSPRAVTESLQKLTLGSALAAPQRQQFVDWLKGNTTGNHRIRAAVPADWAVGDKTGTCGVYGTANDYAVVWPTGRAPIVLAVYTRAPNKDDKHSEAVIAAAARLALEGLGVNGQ

What does the source list for `O=C(O)c1c(F)ccc2c1OB(O)[C@@H]1C[C@H]21` [XERUBORBACTAM]?
MIC90 [1]: 8 µg/mL; Cmax [2]: 28800 ng/mL; Ki [3]: 0.28 nM; Ki [4]: 0.29 nM; MEC [5]: 0.16 µg/mL; MIC50 [6]: 0.125 µg/mL; CL/F [7]: 15.2 mL/min/kg; MIC50 [8]: 0.125 µg/mL; Cmax [9]: 90.4 µg/mL; IC50 [10]: > 1 mM; Ki [11]: 220 nM; bioavailability [12]: 53.2%; half-life [13]: 219 min; IC50 [14]: > 1 mM; MIC50 [15]: 0.125 µg/mL; IC50 [16]: > 100 µM; AUC at 0.5 h [17]: 35200 ng·h/mL; AUC [18]: 34000 ng·h/mL; IC50 [19]: > 1 mM; MIC90 [20]: 1 µg/mL; MIC90 [21]: 0.25 µg/mL; bioavailability [22]: 43%; bioavailability [23]: 42.6%; MIC90 [24]: 0.5 µg/mL; MIC90 [25]: 0.125 µg/mL; MEC [26]: 1.25 µg/mL; IC50 [27]: > 1 mM; MIC50 [28]: < 0.06 µg/mL; MIC50 [29]: 16 µg/mL; Cmax [30]: 26100 ng/mL; Cmax [31]: 52 µg/mL; MEC [32]: 0.3 µg/mL; IC50 [33]: > 1 mM; clearance [34]: 7.83 mL/min/kg; MIC90 [35]: 1 µg/mL; clearance [36]: 8.17 mL/min/kg; MIC50 [37]: 0.25 µg/mL; Ki [38]: 1.9 nM
